{"source": "patent US20230133958A1", "about": "“COMPOUNDS USEFUL IN MODULATING EGFR AND PI3K” (Mekanistic Therapeutics LLC, priority 2021, published 2023)", "key": {"[1]": {"assay": "Metabolic stability in mouse liver microsomes", "type": "in vitro ADME", "settings": "Mouse Liver Microsome (MLM)", "method": "Working solution: 5 µL of compound and control stock solution (10 mM in dimethyl sulfoxide (DMSO)) were diluted with 495 µL of acetonitrile (ACN) (intermediate solution concentration: 100 µM, 99% ACN)\nNADPH Cofactor Preparation: NADPH powder: β-Nicotinamide adenine dinucleotide phosphate reduced form, tetrasodium salt; NADPH 4 Na. The appropriate amount of NADPH powder was weighed and diluted into a 10 mM MgCl2 solution (working solution concentration: 10 unit/mL; final concentration in reaction system: 1 unit/mL)\nLiver Microsomes Preparation: The appropriate concentrations of microsome working solutions were prepared in 100 mM potassium phosphate buffer. Cold (4° C.) acetonitrile (ACN) containing 200 ng/mL tolbutamide and 200 ng/mL labetalol as internal standards (IS) was used as the stop solution\nAssay Procedure: Pre-warm empty ‘Incubation’ plates T60 and NCF60 for 10 minutes. Dilute liver microsomes to 0.56 mg/mL in 100 mM phosphate buffer. Transfer 445 µL microsome working solutions (0.56 mg/mL) into pre-warmed ‘Incubation’ plates T60 and NCF60, Then pre-incubate ‘Incubation’ plates T60 and NCF60 for 10 min at 37° C. with constant shaking. […]\nThe biological stability of the compounds of the invention can be measured by determining its ½ life in the presence microsomes. […]"}, "[2]": {"assay": "Solubility assessment in aqueous media", "type": "physicochemical", "settings": "kinetic from dmso stock, 25° C.", "method": "Preparation of stock solutions: The stock solutions of test compounds and control compound diclofenac were prepared in DMSO at the concentrations of 10 mM.\nProcedure for solubility determination: 15 µL of stock solution (10 mM) of each sample was placed in order into their proper 96-well rack. 485 µL of (SIF, SGF, PBS 7.4, FESSIF, or FESSGF) was added into each vial of the cap-less Solubility Sample plate. The assay was performed in duplicate. Add one stir stick to each vial and seal using a molded PTFE/Silicone plug. […] After completion of the 2 hours, plugs were removed and the stir sticks were removed using a big magnet, the samples from the Solubility Sample plate were transferred into the filter plate. Using the Vacuum Manifold, all the samples were filtered. Aliquot of 5 µL and 5 µL DMSO were taken from the filtrate followed by addition of 490 µL of a mixture of H2O and acetonitrile containing internal standard (1:1). A certain proportion of ultrapure water was used to dilute the diluent according to the peak shape. The dilution factor was changed according to the solubility values and the LC-MS signal response.\nPreparation of 300 µM standards (STD): From the 10 mM DMSO STD plate, 6 µL was transferred into the remaining empty plate, and then 194 µL of DMSO was added to that plate to have a STD concentration of 300 µM. From the 300 µM DMSO STD plate, 5 µL DMSO STD and 5 µL SIF was transferred into the remaining empty plate, and then 490 µL of a mixture of H2O and acetonitrile containing internal standard (1:1) was added to that plate to have a final STD concentration of 3 µM. […]\nProcedure for sample analysis: The plate was placed into the well plate autosampler. The samples were evaluated by LC-MS/MS analysis.\nData analysis: All calculations were carried out using Microsoft Excel. The filtrate was analyzed and quantified against a standard of known concentration using LC coupled with mass spectral peak identification and quantitation. Solubility values of the test compound and control compound were calculated as follows: […]"}}}
{"molecule": "CS(=O)(=O)Nc1cc(-c2ccc3ncnc(Nc4cccc(Cl)c4F)c3c2)cnc1Cl", "note": "[Compound 6, N-[2-chloro-5-[4-(3-chloro-2-fluoro-anilino)quinazolin-6-yl]-3-pyridyl] methanesulfonamide]", "values": [{"measurement": "half-life at 1 µM", "setting": "[1]", "value": "10 to 100", "unit": "min"}, {"measurement": "solubility at 2 h", "setting": "[2]; PBS pH 7.4, aqueous buffer, pH 7.4 Buffer", "value": "5 to 100", "unit": "µM"}, {"measurement": "solubility at 2 h", "setting": "[2]; fassgf or other biorelevant, Simulated Intestinal Fluid (SIF)", "value": "5 to 100", "unit": "µM"}, {"measurement": "solubility at 2 h", "setting": "[2]; Simulated Gastric Fluid (SGF)", "value": "> 200", "unit": "µM"}]}
